From ChEMBL document CHEMBL1201862, “PubChem BioAssay data set” (2004)
One block for each compound: values may come before it. Activity calls are given as the source filed them. Unless noted, the rule behind the calls is not given here.

Tests used:
Phospholipase D1 = Phospholipase D1 (Homo sapiens, UniProt Q13393); assay: PLD1 purified enzyme concentration response. [Related pubchem assays (depositor defined):AID588854]; type: functional
Phospholipase D2 = Phospholipase D2 (Homo sapiens, UniProt O14939); assay: PLD2 purified enzyme concentration response. [Related pubchem assays (depositor defined):AID588854]; type: functional
Chain of Phospholipase D2 (O14939 whole entry): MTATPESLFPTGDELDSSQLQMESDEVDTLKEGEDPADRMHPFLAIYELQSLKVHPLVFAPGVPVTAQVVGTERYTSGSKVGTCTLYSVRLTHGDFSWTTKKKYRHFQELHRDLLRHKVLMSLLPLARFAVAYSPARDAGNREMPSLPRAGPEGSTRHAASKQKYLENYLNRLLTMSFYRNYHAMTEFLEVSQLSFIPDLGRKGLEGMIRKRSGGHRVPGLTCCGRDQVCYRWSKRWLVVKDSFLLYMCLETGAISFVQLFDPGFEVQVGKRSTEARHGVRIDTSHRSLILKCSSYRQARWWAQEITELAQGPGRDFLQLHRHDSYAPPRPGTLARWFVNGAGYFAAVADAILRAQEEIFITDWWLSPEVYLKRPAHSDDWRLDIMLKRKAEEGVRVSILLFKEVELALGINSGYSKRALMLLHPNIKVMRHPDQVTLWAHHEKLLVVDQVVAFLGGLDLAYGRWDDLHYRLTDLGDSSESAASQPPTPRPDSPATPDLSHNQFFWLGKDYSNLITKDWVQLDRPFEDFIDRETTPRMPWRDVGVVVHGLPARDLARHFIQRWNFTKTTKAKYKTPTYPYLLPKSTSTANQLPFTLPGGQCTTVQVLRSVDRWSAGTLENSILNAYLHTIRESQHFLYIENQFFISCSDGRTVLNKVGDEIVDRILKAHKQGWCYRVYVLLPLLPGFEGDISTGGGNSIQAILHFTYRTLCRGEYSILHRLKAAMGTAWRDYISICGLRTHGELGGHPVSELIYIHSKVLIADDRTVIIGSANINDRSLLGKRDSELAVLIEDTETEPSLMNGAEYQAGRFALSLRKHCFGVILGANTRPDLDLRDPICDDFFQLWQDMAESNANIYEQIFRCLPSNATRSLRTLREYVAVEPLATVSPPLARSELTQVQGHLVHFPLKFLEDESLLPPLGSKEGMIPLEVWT

Hexokinase-1 = Hexokinase-1 (Homo sapiens, UniProt P19367); assay: hexokinase 1 activity inhibitors, potency – biochemical, set 2, resazurin fluorescence coupled readout, selectivity assay for HKDC1 inhibitor project, SAR follow-up (AID 588356); type: functional
Chain of Hexokinase-1 (P19367 whole entry): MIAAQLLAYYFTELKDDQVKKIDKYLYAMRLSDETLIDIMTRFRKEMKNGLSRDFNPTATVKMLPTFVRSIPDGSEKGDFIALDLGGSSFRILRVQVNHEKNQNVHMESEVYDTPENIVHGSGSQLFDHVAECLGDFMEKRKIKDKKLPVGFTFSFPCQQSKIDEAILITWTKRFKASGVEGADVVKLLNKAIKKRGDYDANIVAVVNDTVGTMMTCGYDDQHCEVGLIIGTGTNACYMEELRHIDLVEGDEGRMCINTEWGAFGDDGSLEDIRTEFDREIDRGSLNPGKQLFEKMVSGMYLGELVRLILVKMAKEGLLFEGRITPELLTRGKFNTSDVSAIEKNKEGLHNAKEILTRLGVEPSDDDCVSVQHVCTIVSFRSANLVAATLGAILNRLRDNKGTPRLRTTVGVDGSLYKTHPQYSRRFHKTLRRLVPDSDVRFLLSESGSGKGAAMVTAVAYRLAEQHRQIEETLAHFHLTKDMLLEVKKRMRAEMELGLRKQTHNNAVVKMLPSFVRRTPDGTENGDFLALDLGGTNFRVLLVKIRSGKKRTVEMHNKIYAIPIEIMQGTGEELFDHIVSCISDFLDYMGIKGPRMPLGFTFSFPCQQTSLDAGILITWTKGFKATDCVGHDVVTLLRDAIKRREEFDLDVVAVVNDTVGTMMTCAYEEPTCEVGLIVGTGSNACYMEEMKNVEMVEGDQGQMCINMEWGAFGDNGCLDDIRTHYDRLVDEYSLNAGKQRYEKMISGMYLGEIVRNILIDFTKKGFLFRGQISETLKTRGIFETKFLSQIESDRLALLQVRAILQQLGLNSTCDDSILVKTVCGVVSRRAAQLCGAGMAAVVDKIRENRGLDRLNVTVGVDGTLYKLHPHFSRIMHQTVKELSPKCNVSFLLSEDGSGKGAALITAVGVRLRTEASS

Hexokinase HKDC1 = target: T1, Hexokinase HKDC1 (Homo sapiens, UniProt Q2TB90); assay: analog inhibition of human HKDC1 activity – biochemical, set 2, SAR follow-up (AID 588355); type: functional
T1 sequence (Q2TB90 whole entry): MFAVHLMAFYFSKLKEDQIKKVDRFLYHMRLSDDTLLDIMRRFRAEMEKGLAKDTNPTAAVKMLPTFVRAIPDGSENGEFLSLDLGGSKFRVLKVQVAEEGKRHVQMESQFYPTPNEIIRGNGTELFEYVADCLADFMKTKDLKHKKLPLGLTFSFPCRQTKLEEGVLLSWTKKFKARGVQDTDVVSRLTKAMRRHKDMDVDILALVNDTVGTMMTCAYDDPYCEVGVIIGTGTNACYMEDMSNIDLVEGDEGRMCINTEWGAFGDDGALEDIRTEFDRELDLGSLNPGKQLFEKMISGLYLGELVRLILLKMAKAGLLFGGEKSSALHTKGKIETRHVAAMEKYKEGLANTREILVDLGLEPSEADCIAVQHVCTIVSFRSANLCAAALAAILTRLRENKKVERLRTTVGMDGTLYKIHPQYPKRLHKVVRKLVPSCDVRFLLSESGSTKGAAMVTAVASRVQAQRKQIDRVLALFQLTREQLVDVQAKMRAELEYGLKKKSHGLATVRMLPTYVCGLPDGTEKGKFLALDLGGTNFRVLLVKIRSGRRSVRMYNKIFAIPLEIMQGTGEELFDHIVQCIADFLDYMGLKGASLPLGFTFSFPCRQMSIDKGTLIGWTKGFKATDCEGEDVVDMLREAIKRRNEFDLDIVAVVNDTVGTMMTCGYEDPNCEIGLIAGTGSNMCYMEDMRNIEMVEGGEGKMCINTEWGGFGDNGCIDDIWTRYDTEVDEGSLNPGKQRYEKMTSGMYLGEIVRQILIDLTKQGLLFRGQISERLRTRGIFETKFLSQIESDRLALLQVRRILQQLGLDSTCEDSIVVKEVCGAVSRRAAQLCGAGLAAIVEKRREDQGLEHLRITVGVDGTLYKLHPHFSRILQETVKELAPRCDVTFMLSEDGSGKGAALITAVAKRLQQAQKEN

INS1 [1] = assay: beta-cell survival under cytokine stress – INS-1E, ATP luminescence, dry powder, dose response (AID 488844); type: functional, cell-based; conditions: Rattus norvegicus
[2] = suppression of NO production in INS-1E cells – cell-based, Griess absorbance, dry powder, set 3, dose response (AID 488870); type: functional; conditions: Rattus norvegicus
INS1 [3] = assay: INS-1E mitochondrial potential loss inhibitors – cell-based, JC-1 fluorescence, dry powder, set 2, dose response (AID 488867); type: functional; conditions: Rattus norvegicus
INS1 [4] = assay: INS-1E mitochondrial potential rescue under cytokines – cell-based, JC-1 fluorescence ratio, dry powder, dose response (AID 488931); type: functional; conditions: Rattus norvegicus

Chain of Phospholipase D1 (Q13393 whole entry): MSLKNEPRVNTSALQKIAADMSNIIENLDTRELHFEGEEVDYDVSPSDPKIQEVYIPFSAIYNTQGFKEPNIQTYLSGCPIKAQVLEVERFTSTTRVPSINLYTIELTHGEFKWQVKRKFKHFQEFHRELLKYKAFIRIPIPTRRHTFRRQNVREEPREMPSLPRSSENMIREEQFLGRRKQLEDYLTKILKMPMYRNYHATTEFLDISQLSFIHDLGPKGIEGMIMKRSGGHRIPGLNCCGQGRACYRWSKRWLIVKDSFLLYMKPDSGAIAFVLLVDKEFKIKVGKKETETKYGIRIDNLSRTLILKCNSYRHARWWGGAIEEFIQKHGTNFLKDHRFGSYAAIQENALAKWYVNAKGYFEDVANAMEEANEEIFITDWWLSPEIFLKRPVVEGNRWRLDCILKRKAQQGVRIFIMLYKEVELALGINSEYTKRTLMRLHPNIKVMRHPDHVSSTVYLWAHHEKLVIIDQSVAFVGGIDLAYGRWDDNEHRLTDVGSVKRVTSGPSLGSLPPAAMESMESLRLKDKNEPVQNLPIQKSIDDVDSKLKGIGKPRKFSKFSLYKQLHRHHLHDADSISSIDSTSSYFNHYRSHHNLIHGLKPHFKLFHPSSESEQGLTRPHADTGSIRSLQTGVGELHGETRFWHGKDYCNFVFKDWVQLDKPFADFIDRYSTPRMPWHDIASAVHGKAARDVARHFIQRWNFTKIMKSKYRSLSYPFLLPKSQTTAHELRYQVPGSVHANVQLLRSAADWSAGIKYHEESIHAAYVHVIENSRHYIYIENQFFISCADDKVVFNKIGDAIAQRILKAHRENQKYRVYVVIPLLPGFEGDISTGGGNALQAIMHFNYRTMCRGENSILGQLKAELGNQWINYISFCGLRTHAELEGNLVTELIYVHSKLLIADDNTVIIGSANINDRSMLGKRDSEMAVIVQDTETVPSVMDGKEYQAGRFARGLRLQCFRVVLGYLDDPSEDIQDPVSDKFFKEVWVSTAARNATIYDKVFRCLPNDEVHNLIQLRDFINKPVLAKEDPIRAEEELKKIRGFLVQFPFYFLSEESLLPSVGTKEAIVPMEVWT

SMILES: O=C(NCCN1CCC2(CC1)C(=O)NCN2c1ccc(F)c(F)c1)c1ccc2ccccc2c1
- IC50 (Phospholipase D1): 20 µM (active)
- IC50 (Phospholipase D2): 0.098 µM (active)

- IC50 (Hexokinase-1): > 80 µM (inactive)
- IC50 (Hexokinase HKDC1): > 80 µM (inactive)
SMILES: Cc1ccccc1NC1c2ccccc2C(=O)N1c1ccccc1C (stereo not drawn)

SMILES: COc1ccc(S(=O)(=O)N(C)C[C@H]2Oc3c(NC(=O)Nc4cccc5ccccc45)cccc3C(=O)N([C@H](C)CO)C[C@@H]2C)cc1
- AC50 (INS1 [1]): 21.9 µM (active)
- AC50 [2]: 63.9 µM (active)
- AC50 (INS1 [3]): 43.4 µM (active)
- AC50 (INS1 [4]): 33.7 µM (active)
